Experimental data as given in ChEMBL document CHEMBL1201862, “PubChem BioAssay data set” (2004).
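Grown in 96-well plates, cells were treated for 48 hours with each compound at five concentrations. Insufficient inhibition: endpoint recorded as highest concentration tested. GI50 is the concentration that inhibits growth by half.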 The source made the active and inactive calls. No stated cut-off is given here; in the data, active = GI50 up to about 1.1 µM and inactive = higher.

Columns and labels:
Experiment in all cases: NCI tumour cell line growth inhibition, 48 h
NCI-H460 = system: NCI-H460
Malme-3M = system: Malme-3M
HCT-116 = system: HCT-116
LOX IMVI = system: LOX IMVI
SN12C = system: SN12C
CCRF-CEM = system: CCRF-CEM
SNB-75 = system: SNB-75
MDA-MB-435 = system: MDA-MB-435
EKVX = system: EKVX
CAKI-1 = system: CAKI-1
UACC-257 = system: UACC-257
SK-MEL-5 = system: SK-MEL-5
SK-OV-3 = system: SK-OV-3
COLO 205 = system: COLO 205
A498 = system: A498
NCI-H522 = system: NCI-H522
SW-620 = system: SW-620
U-251 = system: U-251
BT-549 = system: BT-549

SMILES	GI50 (NCI-H460)	GI50 (Malme-3M)	GI50 (HCT-116)	GI50 (LOX IMVI)	GI50 (SN12C)	GI50 (CCRF-CEM)	GI50 (SNB-75)	GI50 (MDA-MB-435)	GI50 (EKVX)	GI50 (CAKI-1)	GI50 (UACC-257)	GI50 (SK-MEL-5)	GI50 (SK-OV-3)	GI50 (COLO 205)	GI50 (A498)	GI50 (NCI-H522)	GI50 (SW-620)	GI50 (U-251)	GI50 (BT-549)
[N-]=[N+]=Nc1c(Cl)c(Cl)nc2ccccc12	> 100 µM (inactive)	> 100 µM (inactive)	> 100 µM (inactive)	62.1 µM (inactive)	76 µM (inactive)	54.5 µM (inactive)	44.8 µM (inactive)	> 100 µM (inactive)	92.7 µM (inactive)	21.2 µM (inactive)	> 100 µM (inactive)	> 100 µM (inactive)	> 100 µM (inactive)	> 100 µM (inactive)	81.5 µM (inactive)	71.3 µM (inactive)	93.8 µM (inactive)	–	–
CC(C)(C)c1cc(C2c3cc4c(cc3OC(O)(CO)C2C(=O)O)OCO4)cc(C(C)(C)C)c1O.CC(C)(C)c1cc(C2c3cc4c(cc3OC3(O)COC(=O)C23)OCO4)cc(C(C)(C)C)c1O (stereo unspecified)	14.7 µM (inactive)	16.6 µM (inactive)	8.47 µM (inactive)	12.2 µM (inactive)	9.04 µM (inactive)	3.58 µM (inactive)	10.1 µM (inactive)	–	22.5 µM (inactive)	18.4 µM (inactive)	13.2 µM (inactive)	9.48 µM (inactive)	27.3 µM (inactive)	20.4 µM (inactive)	–	–	14.4 µM (inactive)	14.5 µM (inactive)	–
OC(CC1SCCCS1)c1ccccc1 (stereo unspecified)	> 100 µM (inactive)	> 100 µM (inactive)	> 100 µM (inactive)	–	> 100 µM (inactive)	> 100 µM (inactive)	> 100 µM (inactive)	–	> 100 µM (inactive)	> 100 µM (inactive)	> 100 µM (inactive)	> 100 µM (inactive)	> 100 µM (inactive)	> 100 µM (inactive)	> 100 µM (inactive)	61.7 µM (inactive)	> 100 µM (inactive)	> 100 µM (inactive)	–
COC(=O)C1=C(OC(=O)/C(=C/c2ccc(Cl)cc2)c2ccc(Cl)cc2)C(C(=O)OC)[C@@]2(O)[C@@H](C(=O)OC)[C@H](C)C[C@@H]1[C@@H]2C(=O)OC (stereo partly specified)	14.3 µM (inactive)	29 µM (inactive)	31.6 µM (inactive)	> 100 µM (inactive)	> 100 µM (inactive)	> 37.2 µM (inactive)	> 56 µM (inactive)	> 100 µM (inactive)	10.6 µM (inactive)	> 100 µM (inactive)	> 83.6 µM (inactive)	> 100 µM (inactive)	> 100 µM (inactive)	> 76.4 µM (inactive)	> 100 µM (inactive)	3.87 µM (inactive)	78.2 µM (inactive)	17.8 µM (inactive)	–
O=[N+]([O-])c1ccc(O)c(/C=N/CC2CCCN3CCCCC23)c1 (stereo unspecified)	45.8 µM (inactive)	31 µM (inactive)	44.2 µM (inactive)	38.8 µM (inactive)	–	–	23.7 µM (inactive)	–	31.4 µM (inactive)	57.7 µM (inactive)	32.5 µM (inactive)	19.3 µM (inactive)	29.6 µM (inactive)	24.2 µM (inactive)	–	26 µM (inactive)	–	–	38.6 µM (inactive)
CC1(C)O[C@H](C(=O)O)[C@@H](C(=O)O)O1	> 100 µM (inactive)	> 100 µM (inactive)	> 100 µM (inactive)	> 100 µM (inactive)	> 100 µM (inactive)	> 100 µM (inactive)	> 100 µM (inactive)	> 100 µM (inactive)	> 100 µM (inactive)	> 100 µM (inactive)	> 100 µM (inactive)	> 100 µM (inactive)	> 100 µM (inactive)	> 100 µM (inactive)	> 100 µM (inactive)	> 100 µM (inactive)	> 100 µM (inactive)	> 100 µM (inactive)	–
COC[C@H]1OC(=O)c2coc3c2[C@@]1(C)C1=C(C3=O)[C@@H]2CCC(=O)[C@@]2(C)C[C@H]1OC(C)=O [WORTMANNIN]	8.95 µM (inactive)	–	13.4 µM (inactive)	3.66 µM (inactive)	7.14 µM (inactive)	1.38 µM (inactive)	0.323 µM (active)	3.25 µM (inactive)	9.66 µM (inactive)	0.0108 µM (active)	2.95 µM (inactive)	11.5 µM (inactive)	–	10 µM (inactive)	–	13.8 µM (inactive)	17.7 µM (inactive)	–	–
O=C(CSCC(=O)N/N=C\c1cccc(Br)c1)N/N=C\c1cccc(Br)c1	25.2 µM (inactive)	0.182 µM (active)	14.8 µM (inactive)	10.8 µM (inactive)	16.2 µM (inactive)	–	18.1 µM (inactive)	18.5 µM (inactive)	27.1 µM (inactive)	17.9 µM (inactive)	14.1 µM (inactive)	19.1 µM (inactive)	20.1 µM (inactive)	34 µM (inactive)	–	17 µM (inactive)	27.8 µM (inactive)	15.1 µM (inactive)	21.2 µM (inactive)
CC1(C)CC2C(C1=O)C1(C)CCCC2(C)C1=O (stereo unspecified)	> 100 µM (inactive)	> 100 µM (inactive)	> 100 µM (inactive)	> 100 µM (inactive)	> 100 µM (inactive)	> 100 µM (inactive)	> 100 µM (inactive)	> 100 µM (inactive)	> 100 µM (inactive)	> 100 µM (inactive)	> 100 µM (inactive)	> 100 µM (inactive)	> 100 µM (inactive)	> 100 µM (inactive)	–	–	> 100 µM (inactive)	> 100 µM (inactive)	–
COc1ccc2c3c([nH]c2c1)CCN(Cc1ccccc1)C3	17 µM (inactive)	18.7 µM (inactive)	24 µM (inactive)	15.8 µM (inactive)	34 µM (inactive)	34.3 µM (inactive)	37.3 µM (inactive)	23.6 µM (inactive)	42.8 µM (inactive)	–	19.6 µM (inactive)	17 µM (inactive)	> 100 µM (inactive)	18.7 µM (inactive)	15.1 µM (inactive)	–	23.2 µM (inactive)	22.5 µM (inactive)	–
O=C(NC1C(=O)NNC1c1ccccc1Cl)c1ccccc1 (stereo unspecified)	> 100 µM (inactive)	> 100 µM (inactive)	> 100 µM (inactive)	> 100 µM (inactive)	> 100 µM (inactive)	> 100 µM (inactive)	> 100 µM (inactive)	–	> 100 µM (inactive)	> 100 µM (inactive)	> 100 µM (inactive)	> 100 µM (inactive)	> 100 µM (inactive)	> 100 µM (inactive)	> 100 µM (inactive)	91.4 µM (inactive)	> 100 µM (inactive)	> 100 µM (inactive)	–
O=C(Nc1ccc([N+](=O)[O-])cc1C(=O)O)c1ccc([N+](=O)[O-])cc1	21 µM (inactive)	32.4 µM (inactive)	15.5 µM (inactive)	24.2 µM (inactive)	41.4 µM (inactive)	11.4 µM (inactive)	> 100 µM (inactive)	–	> 100 µM (inactive)	–	40 µM (inactive)	51.3 µM (inactive)	79.3 µM (inactive)	> 10 µM (inactive)	71.9 µM (inactive)	–	46.3 µM (inactive)	37.4 µM (inactive)	–
COC1(C(C)(C)C)C=C(C(C)(C)C)P(=O)(O)O1 (stereo unspecified)	> 100 µM (inactive)	> 100 µM (inactive)	> 100 µM (inactive)	> 100 µM (inactive)	> 100 µM (inactive)	–	> 100 µM (inactive)	> 100 µM (inactive)	> 100 µM (inactive)	> 100 µM (inactive)	> 100 µM (inactive)	> 100 µM (inactive)	> 100 µM (inactive)	> 100 µM (inactive)	> 100 µM (inactive)	> 100 µM (inactive)	> 100 µM (inactive)	> 100 µM (inactive)	–
CCN(CC)CC1CCCCN1CC(=O)N1CC(C)C(=O)Nc2ccccc21 (stereo unspecified)	> 100 µM (inactive)	> 100 µM (inactive)	> 100 µM (inactive)	> 100 µM (inactive)	> 100 µM (inactive)	> 100 µM (inactive)	–	–	–	> 100 µM (inactive)	> 100 µM (inactive)	> 100 µM (inactive)	> 100 µM (inactive)	> 100 µM (inactive)	> 100 µM (inactive)	–	> 100 µM (inactive)	> 100 µM (inactive)	–
O=C(Cn1c(=O)oc2ccc(C(=O)c3ccc(F)cc3)cc21)c1ccccc1	53.5 µM (inactive)	> 100 µM (inactive)	> 100 µM (inactive)	> 100 µM (inactive)	> 100 µM (inactive)	> 100 µM (inactive)	> 100 µM (inactive)	> 100 µM (inactive)	–	> 100 µM (inactive)	> 100 µM (inactive)	48 µM (inactive)	> 100 µM (inactive)	66.2 µM (inactive)	21 µM (inactive)	> 100 µM (inactive)	> 100 µM (inactive)	> 100 µM (inactive)	–
N#Cc1c(N2CCCC2)nsc1Nc1ccccc1	> 100 µM (inactive)	> 100 µM (inactive)	> 100 µM (inactive)	> 100 µM (inactive)	> 100 µM (inactive)	> 100 µM (inactive)	> 100 µM (inactive)	–	> 100 µM (inactive)	> 10 µM (inactive)	> 100 µM (inactive)	> 100 µM (inactive)	–	> 100 µM (inactive)	> 100 µM (inactive)	–	> 100 µM (inactive)	–	–
CC(=O)C1C(=O)C(=O)N(c2ccc([N+](=O)[O-])cc2[N+](=O)[O-])C1=O (stereo unspecified)	> 100 µM (inactive)	–	> 100 µM (inactive)	> 100 µM (inactive)	> 100 µM (inactive)	> 100 µM (inactive)	> 100 µM (inactive)	> 100 µM (inactive)	56.5 µM (inactive)	> 100 µM (inactive)	> 100 µM (inactive)	> 100 µM (inactive)	83.6 µM (inactive)	> 100 µM (inactive)	–	> 100 µM (inactive)	> 100 µM (inactive)	> 100 µM (inactive)	> 100 µM (inactive)
